Results taken from PubChem BioAssay (NCI).
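GI50 marks 50% less growth. TGI is the concentration that stops growth completely.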

How the values were obtained:
Assay in all cases: DTP human tumour cell line panel, 384-well format
SK-MEL-5 melanoma = system: SK-MEL-5 melanoma
ACHN renal = system: ACHN renal
OVCAR-8 ovarian = system: OVCAR-8 ovarian
HCT-15 colon = system: HCT-15 colon
LOX IMVI melanoma = system: LOX IMVI melanoma
U251 glioblastoma = system: U251 glioblastoma
UACC-257 melanoma = system: UACC-257 melanoma
MDA-MB-435 melanoma = system: MDA-MB-435 melanoma
HOP-92 NSCLC = system: HOP-92 NSCLC
SF-295 CNS = system: SF-295 CNS
DU-145 prostate = system: DU-145 prostate
T-47D breast = system: T-47D breast
MDA-MB-231 breast = system: MDA-MB-231 breast
786-0 renal = system: 786-0 renal
SNB-19 CNS = system: SNB-19 CNS
OVCAR-3 ovarian = system: OVCAR-3 ovarian
MDA-MB-468 breast = system: MDA-MB-468 breast
SN12C renal = system: SN12C renal
OVCAR-5 ovarian = system: OVCAR-5 ovarian
EKVX NSCLC = system: EKVX NSCLC
HCC-2998 colon = system: HCC-2998 colon
MOLT-4 leukemia = system: MOLT-4 leukemia
OVCAR-4 ovarian = system: OVCAR-4 ovarian
NCI-H522 lung = system: NCI-H522 lung
A498 renal = system: A498 renal
UO-31 renal = system: UO-31 renal
K-562 leukemia = system: K-562 leukemia
NCI-H460 NSCLC = system: NCI-H460 NSCLC
SF-539 CNS = system: SF-539 CNS
COLO 205 colon = system: COLO 205 colon
HCT-116 colon = system: HCT-116 colon
A549 NSCLC = system: A549 NSCLC
SK-OV-3 ovarian = system: SK-OV-3 ovarian
NCI-H322M lung = system: NCI-H322M lung
CCRF-CEM leukemia = system: CCRF-CEM leukemia
TK-10 renal = system: TK-10 renal
MALME-3M melanoma = system: MALME-3M melanoma
SK-MEL-28 melanoma = system: SK-MEL-28 melanoma

## CCOC(=O)c1ccc2[nH]c(Cc3[nH]c4ccc(C(=O)OCC)cc4c3C)c(C)c2c1
SK-MEL-5 melanoma
  GI50: 1.23 µM
  TGI: 2.8 µM
ACHN renal
  GI50: 1.8 µM
  TGI: 8.24 µM
OVCAR-8 ovarian
  GI50: 1.56 µM
  TGI: 11.1 µM
HCT-15 colon
  GI50: 0.0286 µM
  TGI: 6.55 µM
LOX IMVI melanoma
  GI50: 0.481 µM
  TGI: 1.91 µM
U251 glioblastoma
  GI50: 1.13 µM
  TGI: 6.01 µM
UACC-257 melanoma
  GI50: 9.7 µM
  TGI: 25.3 µM
MDA-MB-435 melanoma
  GI50: 4.68 µM
  TGI: 61.4 µM
HOP-92 NSCLC
  GI50: 2.07 µM
  TGI: 7.98 µM
SF-295 CNS
  GI50: 0.464 µM
  TGI: 4.59 µM
DU-145 prostate
  GI50: 3.05 µM
  TGI: 17 µM
T-47D breast
  GI50: 2.88 µM
  TGI: 9.2 µM
MDA-MB-231 breast
  GI50: 0.601 µM
  TGI: 12.1 µM
786-0 renal
  GI50: 1.4 µM
  TGI: 11.7 µM
SNB-19 CNS
  GI50: 5.4 µM
  TGI: 21.3 µM
OVCAR-3 ovarian
  GI50: 2.97 µM
  TGI: 12.7 µM
MDA-MB-468 breast
  GI50: 1.08 µM
  TGI: 7.27 µM
SN12C renal
  GI50: 3.08 µM
  TGI: 12.6 µM
OVCAR-5 ovarian
  GI50: 2.73 µM
  TGI: 32.1 µM
EKVX NSCLC
  GI50: 4.62 µM
  TGI: 18.2 µM
HCC-2998 colon
  GI50: 1.56 µM
  TGI: 16.1 µM
MOLT-4 leukemia
  GI50: 0.0514 µM
  TGI: 0.274 µM
OVCAR-4 ovarian
  GI50: 3.11 µM
  TGI: 14.3 µM
NCI-H522 lung
  GI50: 1.69 µM
  TGI: 12.1 µM
A498 renal
  GI50: 2.36 µM
  TGI: 10.6 µM
UO-31 renal
  GI50: 3.36 µM
  TGI: 18.9 µM
K-562 leukemia
  GI50: 0.356 µM
  TGI: 12.3 µM
NCI-H460 NSCLC
  GI50: 0.281 µM
  TGI: 2.07 µM
SF-539 CNS
  GI50: 1.3 µM
  TGI: 7.85 µM
COLO 205 colon
  GI50: 0.344 µM
  TGI: 14.5 µM
HCT-116 colon
  GI50: 0.472 µM
  TGI: 2.41 µM
A549 NSCLC
  GI50: 1.92 µM
  TGI: 14.6 µM
SK-OV-3 ovarian
  GI50: 4.64 µM
  TGI: 18.6 µM
NCI-H322M lung
  GI50: 4.26 µM
  TGI: 19.7 µM
CCRF-CEM leukemia
  GI50: 0.763 µM
  TGI: 11.7 µM
TK-10 renal
  GI50: 0.498 µM
  TGI: 11.4 µM
MALME-3M melanoma
  GI50: 1.63 µM
  TGI: 6.41 µM
SK-MEL-28 melanoma
  GI50: 3.4 µM
  TGI: 23.1 µM
